# Source: patent EP0542363A2 (GLAXO GROUP LIMITED, priority 1991, dated 1993)
# pIC50: −log10 of the molar value. Structures can show the parent of a compound that is named as a salt.
# Tested on: human gel filtered platelets (GFP)
# Test: Inhibition of ADP-induced blood platelet aggregation in gel filtered platelets (Born-type optical aggregometer)
# Type: cell-based
# Conditions: 5 min; human GFP approx. 300,000 platelets/µl; human fibrinogen 0.5mg/ml, Ca2+ 1mM, Mg2+ 0.5mM; compounds incubated 5 minutes at 37°C; ADP 1 x 10⁻⁵M; concentration producing 50% inhibition of platelet aggregation; read-out: IC₅₀
# Protocol: Inhibition of blood platelet aggregation by compounds of the invention was determined according to the following procedure. Citrated whole blood (1 part 3.8% trisodium citrate : 9 parts blood) was obtained from human volunteers, free of medication for at least 10 days prior to collection. The blood was incubated with 0.1mM aspirin and 0.05µM prostacyclin and then centrifuged at 1000g for 4 minutes (20°C). The supernatant platelet rich plasma (PRP) was further centrifuged at 1300g for 10 minutes (20°C) to sediment the platelets. The supernatant was discarded and the pellet washed with a physiological salt solution (HEPES 5mM, NaHCO₃ 12mM, NaCl 140mM, KH₂PO₄ 0.74mM, D-Glucose 5.6mM, KCl 2.82mM and BSA 20g/l, pH 7.4) to remove residual plasma. After washing, the pellet was resuspended in physiological salt solution and then applied to a sepharose CL-2B column, pre-equilibrated with physiological salt solution at room temperature. The platelets (GFP) eluted within the void volume and were diluted to approximately 300,000 platelets/µl in buffer. Purified human fibrinogen (Knight L.C. et al, 1981 Thromb. Haemostasis, 46(3), 593-596) was added to a final concentration of 0.5mg/ml together with Ca2+ and Mg2+ at 1mM and 0.5mM respectively. […] The potency of the compounds may be expressed as an IC₅₀ value defined as the concentration of compound required to produce 50% inhibition of platelet aggregation.
row,Compound,pIC50
1,"C[C@@H]1CN(CC(=O)O)CC[C@@H]1N1CCN(c2ccc(C(=N)N)cc2)CC1 (relative stereo) [Example 30, cis-4-[4-[4-Aminoiminomethyl)phenyl]-1-piperazinyl]-3-methyl-1-piperidineacetic acid trihydrochloride salt]",7.64
2,"C[N@+]1(CC(=O)O)CC[C@H](N2CCN(c3ccc(C(=N)N)cc3)CC2)CC1 [Example 16a, trans-4-[4-[4-(Aminoiminomethyl)phenyl]-1-piperazinyl]-1-(2-hydroxy-2-oxoethyl)-1-methylpiperidinium trifluoroacetate salt]",7.36
3,"NC(=NO)c1ccc(N2CCN(C3CCN(CC(=O)O)CC3)CC2)cc1 [Example 17, 4-[4-[4-[Amino(hydroxyimino)methyl]phenyl]-1-piperazinyl]-1-piperidineacetic acid trifluoroacetate]",5.25
4,"N=C(NCC(F)(F)F)c1ccc(N2CCN(C3CCN(CC(=O)O)CC3)CC2)cc1 [Example 18, 4-[4-[4-[Imino[(2,2,2-trifluoroethyl)amino]methyl]phenyl]-1-piperazinyl]-1-piperidineacetic acid trifluoroacetate salt]",6.50
5,"N=C(N)c1ccc(N2CCN(C3CCN(CC(=O)O)CC3)CC2)cn1 [Example 19, trifluoroacetate salt]",7.12
6,"CC1CN(c2ccc(C(=N)N)cc2)CCN1C1CCN(CC(=O)O)CC1 (centres unmarked) [Example 20, trifluoroacetate salt]",7.15
7,"C[N@+]1(CC(=O)O)CC[C@H](C2CCN(c3ccc(C(=N)N)cc3)CC2)CC1 [Example 21, trans-4-[1-[4-(Aminoiminomethyl)phenyl]-4-piperidinyl]-1-(2-hydroxy-2-oxoethyl)-1-methylpiperidinium trifluoroacetate salt]",7.39
8,"N=C(N)c1ccc(C2CCN(C3CCN(CC(=O)O)CC3)CC2)cc1 [Example 22, trifluoroacetate salt]",7.15
9,"CCOC(=O)CN1CCC(N2CCN(c3ccc(C(=N)N)cc3)CC2)CC1 [Example 23, trifluoroacetate salt]",4.79
10,"N=C(N)c1ccc(N2CCN(C3CCN(CC(=O)O)CC3)CC2)c(Br)c1 [Example 24, trifluoroacetate salt]",6.47
11,"Cc1cc(C(=N)N)ccc1N1CCN(C2CCN(CC(=O)O)CC2)CC1 [Example 25, trifluoroacetate salt]",6.24
12,CC(C(=O)O)N1CCC(N2CCN(c3ccc(C(=N)N)cc3)CC2)CC1 (centres unmarked) [Example 26],6.75
13,"COC(=O)NC(=N)c1ccc(N2CCN(C3CCN(CC(=O)O)CC3)CC2)cc1 [Example 34, 4-[4-[4-[Imino[(methoxycarbonyl)amino]methyl]phenyl]-1-piperazinyl]-1-piperidineacetic acid trifluoroacetate salt]",5.80
14,"N=C(N)c1ccc(N2CCN(C3CCN(CC(=O)O)CC3)CC2)nc1 [Example 41, trifluoroacetate salt]",7.52

# Same assay, conditions: human GFP approx. 300,000 platelets/µl; human fibrinogen 0.5mg/ml, Ca2+ 1mM, Mg2+ 0.5mM; compounds incubated 5 minutes at 37°C; ADP 1 x 10⁻⁵M; concentration producing 50% inhibition of platelet aggregation; read-out: IC₅₀
row,pIC50,Compound
1,5.57,4-[4-[4-[(Diethylphosphinyl)amino]iminomethyl]phenyI]-1-piperazinyl]-1- piperidineacetic acid trifluoroacetate salt [Example 36]

# Same assay, conditions: human GFP approx. 300,000 platelets/µl; human fibrinogen 0.5mg/ml, Ca2+ 1mM, Mg2+ 0.5mM; compounds incubated 5 minutes at 37°C; ADP 1 x 10⁻⁵M; concentration producing 50% inhibition of platelet aggregation; trifluoroacetate salt; read-out: IC₅₀
row,pIC50,Compound
1,7.42,"N=C(N)c1ccc(N2CCN(C3CC[N+](CC(=O)O)(Cc4ccccc4)CC3)CC2)cc1 (stereo not drawn) [Example 28, trans-4-[4-[4-(Aminoiminomethyl)phenyl]-1-piperazinyl]-1-(2-hydroxy-2-oxoethyl)-1-(phenylmethyl)piperidinium trifluoroacetate salt]"
2,6.45,"N=C(N)c1ccc(N2CCN(C3CC[N+](CC(=O)O)(Cc4ccccc4)CC3)CC2)cc1 (stereo not drawn) [Example 29, cis-4-[4-[4-(Aminoiminomethyl)phenyl]-1-piperazinyl]-1-(2-hydroxy-2-oxoethyl)-1-(phenylmethyl)piperidinium trifluoroacetate salt]"
